Source: ChEMBL document CHEMBL4020788, “Synthesis, SAR and molecular docking studies of benzo[d]thiazole-hydrazones as potential antibacterial and antifungal agents” (2017)
In brackets after ≈: the same amount, converted by molar mass. Activity calls are given as the source filed them. The calls are words filed in the database; no cut-off is given here.

Experiments:
Assay type in all cases: functional
Fusarium verticillioides [1] = assay: Antifungal activity against Fusarium moniliforme at 50 ug/ml after 48 hrs by agar well diffusion method; conditions: for zone of inhibition at 50 µg/mL: read-out: DIZ
Aspergillus niger [2] = assay: Antifungal activity against Aspergillus niger at 75 ug/ml after 48 hrs by agar well diffusion method; conditions: for zone of inhibition at 75 µg/mL: read-out: DIZ
Aspergillus niger [3] = assay: Antifungal activity against Aspergillus niger after 48 to 72 hrs by microdilution method
Fusarium verticillioides [4] = assay: Antifungal activity against Fusarium moniliforme at 100 ug/ml after 48 hrs by agar well diffusion method; conditions: for zone of inhibition at 100 µg/mL: read-out: DIZ
Fusarium oxysporum [5] = assay: Antifungal activity against Fusarium oxysporum at 50 ug/ml after 48 hrs by agar well diffusion method
Fusarium oxysporum [6] = assay: Antifungal activity against Fusarium oxysporum at 25 ug/ml after 48 hrs by agar well diffusion method
Aspergillus niger [7] = assay: Antifungal activity against Aspergillus niger at 100 ug/ml after 48 hrs by agar well diffusion method; conditions: for zone of inhibition at 100 µg/mL: read-out: DIZ
Aspergillus niger [8] = assay: Antifungal activity against Aspergillus niger at 50 ug/ml after 48 hrs by agar well diffusion method; conditions: for zone of inhibition at 50 µg/mL: read-out: DIZ
Fusarium oxysporum [9] = assay: Antifungal activity against Fusarium oxysporum at 75 ug/ml after 48 hrs by agar well diffusion method
Fusarium verticillioides [10] = assay: Antifungal activity against Fusarium moniliforme after 48 to 72 hrs by microdilution method
Fusarium verticillioides [11] = assay: Antifungal activity against Fusarium moniliforme at 75 ug/ml after 48 hrs by agar well diffusion method; conditions: for zone of inhibition at 75 µg/mL: read-out: DIZ
Fusarium oxysporum [12] = assay: Antifungal activity against Fusarium oxysporum after 48 to 72 hrs by microdilution method
Fusarium oxysporum [13] = assay: Antifungal activity against Fusarium oxysporum at 100 ug/ml after 48 hrs by agar well diffusion method
Aspergillus niger [14] = assay: Antifungal activity against Aspergillus niger at 25 ug/ml after 48 hrs by agar well diffusion method; conditions: for zone of inhibition at 25 µg/mL: read-out: DIZ
Fusarium verticillioides [15] = assay: Antifungal activity against Fusarium moniliforme at 25 ug/ml after 48 hrs by agar well diffusion method; conditions: for zone of inhibition at 25 µg/mL: read-out: DIZ
Staphylococcus aureus [16] = assay: Antibacterial activity against Staphylococcus aureus at 25 ug/ml after 24 hrs by agar well diffusion method; conditions: read-out: DIZ
Escherichia coli [17] = assay: Antibacterial activity against Escherichia coli at 50 ug/ml after 24 hrs by agar well diffusion method; conditions: read-out: DIZ
Klebsiella pneumoniae [18] = assay: Antibacterial activity against Klebsiella pneumoniae at 100 ug/ml after 24 hrs by agar well diffusion method; conditions: read-out: DIZ
Staphylococcus aureus [19] = assay: Antibacterial activity against Staphylococcus aureus at 100 ug/ml after 24 hrs by agar well diffusion method; conditions: read-out: DIZ
Staphylococcus aureus [20] = assay: Antibacterial activity against methicillin resistant Staphylococcus aureus MRSA090 incubated for overnight by microdilution method
Escherichia coli [21] = assay: Antibacterial activity against Escherichia coli incubated for overnight by microdilution method
Klebsiella pneumoniae [22] = assay: Antibacterial activity against Klebsiella pneumoniae at 75 ug/ml after 24 hrs by agar well diffusion method; conditions: read-out: DIZ
Staphylococcus aureus [23] = assay: Antibacterial activity against Staphylococcus aureus incubated for overnight by microdilution method
Staphylococcus aureus [24] = assay: Antibacterial activity against Staphylococcus aureus at 75 ug/ml after 24 hrs by agar well diffusion method; conditions: read-out: DIZ
Staphylococcus aureus [25] = assay: Antibacterial activity against methicillin resistant Staphylococcus aureus MRSA090 at 75 ug/ml after 24 hrs by agar well diffusion method; conditions: MRSA090, 24 h, read-out: DIZ
Staphylococcus aureus [26] = assay: Antibacterial activity against Staphylococcus aureus at 50 ug/ml after 24 hrs by agar well diffusion method; conditions: read-out: DIZ
Bacillus subtilis [27] = assay: Antibacterial activity against Bacillus subtilis at 100 ug/ml after 24 hrs by agar well diffusion method; conditions: read-out: DIZ
Bacillus subtilis [28] = assay: Antibacterial activity against Bacillus subtilis at 25 ug/ml after 24 hrs by agar well diffusion method; conditions: read-out: DIZ
Bacillus subtilis [29] = assay: Antibacterial activity against Bacillus subtilis incubated for overnight by microdilution method
Escherichia coli [30] = assay: Antibacterial activity against Escherichia coli at 100 ug/ml after 24 hrs by agar well diffusion method; conditions: read-out: DIZ
Staphylococcus aureus [31] = assay: Antibacterial activity against methicillin resistant Staphylococcus aureus MRSA090 at 50 ug/ml after 24 hrs by agar well diffusion method; conditions: MRSA090, 24 h, read-out: DIZ
Escherichia coli [32] = assay: Antibacterial activity against Escherichia coli at 75 ug/ml after 24 hrs by agar well diffusion method; conditions: read-out: DIZ
Bacillus subtilis [33] = assay: Antibacterial activity against Bacillus subtilis at 75 ug/ml after 24 hrs by agar well diffusion method; conditions: read-out: DIZ
Bacillus subtilis [34] = assay: Antibacterial activity against Bacillus subtilis at 50 ug/ml after 24 hrs by agar well diffusion method; conditions: read-out: DIZ
Klebsiella pneumoniae [35] = assay: Antibacterial activity against Klebsiella pneumoniae at 50 ug/ml after 24 hrs by agar well diffusion method; conditions: read-out: DIZ
Staphylococcus aureus [36] = assay: Antibacterial activity against methicillin resistant Staphylococcus aureus MRSA090 at 100 ug/ml after 24 hrs by agar well diffusion method; conditions: MRSA090, 24 h, read-out: DIZ
Staphylococcus aureus [37] = assay: Antibacterial activity against methicillin resistant Staphylococcus aureus MRSA090 at 25 ug/ml after 24 hrs by agar well diffusion method; conditions: MRSA090, 24 h, read-out: DIZ
Escherichia coli [38] = assay: Antibacterial activity against Escherichia coli at 25 ug/ml after 24 hrs by agar well diffusion method; conditions: read-out: DIZ
Klebsiella pneumoniae [39] = assay: Antibacterial activity against Klebsiella pneumoniae at 25 ug/ml after 24 hrs by agar well diffusion method; conditions: read-out: DIZ

## CC(=O)N1CCN(c2ccc(OCC3COC(Cn4ccnc4)(c4ccc(Cl)cc4Cl)O3)cc2)CC1 (configuration not stated) [KETOCONAZOLE]
Fusarium verticillioides [1]
  zone of inhibition at 50 µg/mL: 25 mm
Aspergillus niger [2]
  zone of inhibition at 75 µg/mL: 34 mm
Aspergillus niger [3]
  MIC: 28 µg/mL (≈ 52.7 µM)
Fusarium verticillioides [4]
  zone of inhibition at 100 µg/mL: 34 mm
Fusarium oxysporum [5]; read-out: DIZ
  zone of inhibition at 50 µg/mL: 22 mm
Fusarium oxysporum [6]; read-out: DIZ
  zone of inhibition at 25 µg/mL: 23 mm
Aspergillus niger [7]
  zone of inhibition at 100 µg/mL: 37 mm
Aspergillus niger [8]
  zone of inhibition at 50 µg/mL: 28 mm
Fusarium oxysporum [9]; read-out: DIZ
  zone of inhibition at 75 µg/mL: 32 mm
Fusarium verticillioides [10]
  MIC: 27 µg/mL (≈ 50.8 µM)
Fusarium verticillioides [11]
  zone of inhibition at 75 µg/mL: 31 mm
Fusarium oxysporum [12]
  MIC: 24 µg/mL (≈ 45.2 µM)
Fusarium oxysporum [13]; read-out: DIZ
  zone of inhibition at 100 µg/mL: 38 mm
Aspergillus niger [14]
  zone of inhibition at 25 µg/mL: 24 mm
Fusarium verticillioides [15]
  zone of inhibition at 25 µg/mL: 21 mm

## Cc1cccc2nc(N/N=C/c3ccc(O)cc3)sc12
Fusarium verticillioides [1]
  zone of inhibition at 50 µg/mL: 10 mm
Staphylococcus aureus [16]
  zone of inhibition at 25 µg/mL: 10 mm
Aspergillus niger [2]
  diameter of the inhibition zone (DIZ): inactive
Escherichia coli [17]
  zone of inhibition at 50 µg/mL: 19 mm
Klebsiella pneumoniae [18]
  zone of inhibition at 100 µg/mL: 26 mm
Staphylococcus aureus [19]
  zone of inhibition at 100 µg/mL: 23 mm
Staphylococcus aureus [20]
  MIC: 30 µg/mL (≈ 106 µM)
Escherichia coli [21]
  MIC: 25 µg/mL (≈ 88.2 µM)
Klebsiella pneumoniae [22]
  zone of inhibition at 75 µg/mL: 22 mm
Staphylococcus aureus [23]
  MIC: 28 µg/mL (≈ 98.8 µM)
Staphylococcus aureus [24]
  zone of inhibition at 75 µg/mL: 20 mm
Fusarium verticillioides [4]
  zone of inhibition at 100 µg/mL: 17 mm
Fusarium oxysporum [5]
  diameter of the inhibition zone (DIZ): inactive
Staphylococcus aureus [25]
  zone of inhibition at 75 µg/mL: 21 mm
Staphylococcus aureus [26]
  zone of inhibition at 50 µg/mL: 16 mm
Fusarium oxysporum [6]
  diameter of the inhibition zone (DIZ): inactive
Aspergillus niger [7]
  diameter of the inhibition zone (DIZ): inactive
Bacillus subtilis [27]
  zone of inhibition at 100 µg/mL: 21 mm
Bacillus subtilis [28]
  zone of inhibition at 25 µg/mL: 11 mm
Bacillus subtilis [29]
  MIC: 26 µg/mL (≈ 91.8 µM)
Aspergillus niger [8]
  diameter of the inhibition zone (DIZ): inactive
Escherichia coli [30]
  zone of inhibition at 100 µg/mL: 25 mm
Fusarium oxysporum [9]
  diameter of the inhibition zone (DIZ): inactive
Staphylococcus aureus [31]
  zone of inhibition at 50 µg/mL: 17 mm
Escherichia coli [32]
  zone of inhibition at 75 µg/mL: 22 mm
Bacillus subtilis [33]
  zone of inhibition at 75 µg/mL: 18 mm
Bacillus subtilis [34]
  zone of inhibition at 50 µg/mL: 14 mm
Fusarium verticillioides [11]
  zone of inhibition at 75 µg/mL: 13 mm
Klebsiella pneumoniae [35]
  zone of inhibition at 50 µg/mL: 17 mm
Staphylococcus aureus [36]
  zone of inhibition at 100 µg/mL: 24 mm
Staphylococcus aureus [37]
  zone of inhibition at 25 µg/mL: 14 mm
Escherichia coli [38]
  zone of inhibition at 25 µg/mL: 17 mm
Klebsiella pneumoniae [39]
  zone of inhibition at 25 µg/mL: 14 mm
Fusarium oxysporum [13]
  diameter of the inhibition zone (DIZ): inactive
Aspergillus niger [14]
  diameter of the inhibition zone (DIZ): inactive
Fusarium verticillioides [15]
  zone of inhibition at 25 µg/mL: 8 mm

## COc1ccc(/C=N/Nc2nc3cccc(C)c3s2)cc1
Fusarium verticillioides [1]
  diameter of the inhibition zone (DIZ): inactive
Staphylococcus aureus [16]
  zone of inhibition at 25 µg/mL: 12 mm
Aspergillus niger [2]
  zone of inhibition at 75 µg/mL: 14 mm
Escherichia coli [17]
  zone of inhibition at 50 µg/mL: 12 mm
Klebsiella pneumoniae [18]
  zone of inhibition at 100 µg/mL: 22 mm
Staphylococcus aureus [19]
  zone of inhibition at 100 µg/mL: 24 mm
Staphylococcus aureus [20]
  MIC: 32 µg/mL (≈ 108 µM)
Escherichia coli [21]
  MIC: 27 µg/mL (≈ 90.8 µM)
Klebsiella pneumoniae [22]
  zone of inhibition at 75 µg/mL: 20 mm
Staphylococcus aureus [23]
  MIC: 30 µg/mL (≈ 101 µM)
Staphylococcus aureus [24]
  zone of inhibition at 75 µg/mL: 19 mm
Fusarium verticillioides [4]
  diameter of the inhibition zone (DIZ): inactive
Fusarium oxysporum [5]
  diameter of the inhibition zone (DIZ): inactive
Staphylococcus aureus [25]
  zone of inhibition at 75 µg/mL: 16 mm
Staphylococcus aureus [26]
  zone of inhibition at 50 µg/mL: 14 mm
Fusarium oxysporum [6]
  diameter of the inhibition zone (DIZ): inactive
Aspergillus niger [7]
  zone of inhibition at 100 µg/mL: 16 mm
Bacillus subtilis [27]
  zone of inhibition at 100 µg/mL: 26 mm
Bacillus subtilis [28]
  zone of inhibition at 25 µg/mL: 13 mm
Bacillus subtilis [29]
  MIC: 28 µg/mL (≈ 94.2 µM)
Aspergillus niger [8]
  zone of inhibition at 50 µg/mL: 11 mm
Escherichia coli [30]
  zone of inhibition at 100 µg/mL: 10 mm
Fusarium oxysporum [9]
  diameter of the inhibition zone (DIZ): inactive
Staphylococcus aureus [31]
  zone of inhibition at 50 µg/mL: 13 mm
Escherichia coli [32]
  zone of inhibition at 75 µg/mL: 15 mm
Bacillus subtilis [33]
  zone of inhibition at 75 µg/mL: 20 mm
Bacillus subtilis [34]
  zone of inhibition at 50 µg/mL: 18 mm
Fusarium verticillioides [11]
  diameter of the inhibition zone (DIZ): inactive
Klebsiella pneumoniae [35]
  zone of inhibition at 50 µg/mL: 16 mm
Staphylococcus aureus [36]
  zone of inhibition at 100 µg/mL: 21 mm
Staphylococcus aureus [37]
  zone of inhibition at 25 µg/mL: 10 mm
Escherichia coli [38]
  zone of inhibition at 25 µg/mL: 10 mm
Klebsiella pneumoniae [39]
  zone of inhibition at 25 µg/mL: 14 mm
Fusarium oxysporum [13]
  diameter of the inhibition zone (DIZ): inactive
Aspergillus niger [14]
  zone of inhibition at 25 µg/mL: 8 mm
Fusarium verticillioides [15]
  diameter of the inhibition zone (DIZ): inactive
